The source of these data is ChEMBL document CHEMBL3407420, “In silico studies, synthesis and binding evaluation of substituted 2-pyrrolidinones as peptidomimetics of RGD tripeptide sequence” (Eur J Med Chem, 2015).

Structures are written as SMILES.

Assay [1] addresses Integrin alpha-V/beta-5 (Homo sapiens, UniProt P06756+P18084). Kind of assay: Binding affinity to alphaVbeta5 receptor (unknown origin). In kind it is protein-complex assay.
For assay [2], the target named is Integrin alpha-V/beta-3 (Homo sapiens, UniProt P05106+P06756). Kind of assay: Displacement of [125I]echistatin from purified human alphaVbeta3 receptor after 3 hrs by gamma counting. In kind it is protein-complex assay. On the technique in general: Loss of bound radioactivity is the signal in a displacement assay; it reports binding, not function.
Integrin alpha-V/beta-3, sequence (P05106 27-788 limits assumed): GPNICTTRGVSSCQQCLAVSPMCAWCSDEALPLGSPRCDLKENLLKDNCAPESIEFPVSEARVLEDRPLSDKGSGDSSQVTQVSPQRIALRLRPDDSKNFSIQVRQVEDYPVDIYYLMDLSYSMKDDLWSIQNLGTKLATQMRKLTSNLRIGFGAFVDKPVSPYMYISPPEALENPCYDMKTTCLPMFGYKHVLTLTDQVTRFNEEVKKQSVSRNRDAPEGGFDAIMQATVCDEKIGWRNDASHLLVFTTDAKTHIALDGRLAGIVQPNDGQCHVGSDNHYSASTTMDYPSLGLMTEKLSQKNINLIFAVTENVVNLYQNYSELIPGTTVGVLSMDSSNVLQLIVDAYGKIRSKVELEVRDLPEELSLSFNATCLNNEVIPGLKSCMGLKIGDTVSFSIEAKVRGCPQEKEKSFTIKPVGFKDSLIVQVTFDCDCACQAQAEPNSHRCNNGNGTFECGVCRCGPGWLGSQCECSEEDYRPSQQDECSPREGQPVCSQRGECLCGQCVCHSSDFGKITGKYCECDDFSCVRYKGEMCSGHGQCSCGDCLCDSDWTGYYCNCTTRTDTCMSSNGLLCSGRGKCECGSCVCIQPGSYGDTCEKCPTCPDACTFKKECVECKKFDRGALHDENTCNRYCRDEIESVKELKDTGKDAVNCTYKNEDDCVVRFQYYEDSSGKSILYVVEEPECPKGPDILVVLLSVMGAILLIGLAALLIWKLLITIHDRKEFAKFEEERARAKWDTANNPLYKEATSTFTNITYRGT
Integrin alpha-V/beta-3, sequence (P06756 31-889 limits assumed): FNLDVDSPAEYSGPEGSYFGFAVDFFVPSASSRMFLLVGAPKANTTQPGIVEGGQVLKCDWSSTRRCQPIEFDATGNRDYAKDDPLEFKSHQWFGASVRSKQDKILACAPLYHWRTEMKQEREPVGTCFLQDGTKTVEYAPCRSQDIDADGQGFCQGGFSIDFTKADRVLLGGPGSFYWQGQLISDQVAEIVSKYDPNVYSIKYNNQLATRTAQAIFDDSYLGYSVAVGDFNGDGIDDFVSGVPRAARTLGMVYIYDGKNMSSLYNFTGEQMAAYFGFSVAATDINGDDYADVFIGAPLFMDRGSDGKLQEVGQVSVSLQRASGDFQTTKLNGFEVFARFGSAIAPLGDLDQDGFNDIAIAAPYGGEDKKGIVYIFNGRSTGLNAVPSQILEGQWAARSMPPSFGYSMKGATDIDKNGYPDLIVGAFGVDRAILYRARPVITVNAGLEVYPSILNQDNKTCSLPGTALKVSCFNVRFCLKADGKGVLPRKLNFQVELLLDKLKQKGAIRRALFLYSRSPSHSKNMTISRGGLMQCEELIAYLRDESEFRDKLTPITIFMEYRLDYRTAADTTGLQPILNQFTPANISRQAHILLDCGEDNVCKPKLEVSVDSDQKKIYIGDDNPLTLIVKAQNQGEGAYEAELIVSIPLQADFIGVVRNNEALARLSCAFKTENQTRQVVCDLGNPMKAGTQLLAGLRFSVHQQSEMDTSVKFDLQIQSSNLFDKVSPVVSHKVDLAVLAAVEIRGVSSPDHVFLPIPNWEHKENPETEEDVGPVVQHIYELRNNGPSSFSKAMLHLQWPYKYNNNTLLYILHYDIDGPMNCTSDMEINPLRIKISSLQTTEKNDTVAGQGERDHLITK
Integrin alpha-V/beta-3, sequence (P06756 891-1048 limits assumed): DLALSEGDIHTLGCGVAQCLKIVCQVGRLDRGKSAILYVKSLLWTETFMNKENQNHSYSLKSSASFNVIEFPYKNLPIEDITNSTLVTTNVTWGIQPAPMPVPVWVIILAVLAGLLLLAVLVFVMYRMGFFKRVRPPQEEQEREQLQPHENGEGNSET

Integrin alpha-V/beta-5, sequence (P06756 31-889 limits assumed): as the sequence (P06756 31-889 limits assumed) above
Integrin alpha-V/beta-5, sequence (P06756 891-1048 limits assumed): as the sequence (P06756 891-1048 limits assumed) above
Integrin alpha-V/beta-5, sequence (P18084 24-799 limits assumed): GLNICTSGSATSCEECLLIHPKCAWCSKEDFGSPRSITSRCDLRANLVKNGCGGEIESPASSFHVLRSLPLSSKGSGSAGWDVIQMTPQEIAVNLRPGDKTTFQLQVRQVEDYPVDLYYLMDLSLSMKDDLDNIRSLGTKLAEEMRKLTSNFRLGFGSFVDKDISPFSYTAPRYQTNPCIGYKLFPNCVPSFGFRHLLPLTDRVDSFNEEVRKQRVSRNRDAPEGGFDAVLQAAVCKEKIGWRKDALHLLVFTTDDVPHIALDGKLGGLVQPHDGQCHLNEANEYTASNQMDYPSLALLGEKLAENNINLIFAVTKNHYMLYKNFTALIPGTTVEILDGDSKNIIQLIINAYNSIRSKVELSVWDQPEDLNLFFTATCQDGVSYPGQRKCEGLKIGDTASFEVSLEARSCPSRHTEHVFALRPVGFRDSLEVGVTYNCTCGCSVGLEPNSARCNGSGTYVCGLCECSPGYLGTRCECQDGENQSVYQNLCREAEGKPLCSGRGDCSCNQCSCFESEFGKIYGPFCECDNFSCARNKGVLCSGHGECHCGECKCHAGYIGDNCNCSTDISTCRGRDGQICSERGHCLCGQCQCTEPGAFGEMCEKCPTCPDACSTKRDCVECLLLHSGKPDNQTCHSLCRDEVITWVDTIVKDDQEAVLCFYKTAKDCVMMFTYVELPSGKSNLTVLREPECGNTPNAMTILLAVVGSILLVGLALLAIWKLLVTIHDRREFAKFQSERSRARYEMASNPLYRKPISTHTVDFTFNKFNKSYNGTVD

`N=C(N)NCCC[C@@H]1NC(=O)[C@H](CCCCN)NC(=O)[C@@H](Cc2ccccc2)NC(=O)[C@H](CC(=O)O)NC(=O)CNC1=O`: the IC50 (as a rule, the concentration that inhibits the measured activity by half) in assay [1] was found to be 30 µM. This lies in the double-digit micromolar range.

The compound `N=C(N)NCCC[C@@H]1CCN([C@@H](CCCCN)C(=O)NCCC(=O)O)C1=O` had a concentration for half-maximal inhibition (IC50) in assay [2] of 50 µM.

In turn, `N=C(N)NCCC[C@@H]1CCN([C@@H](CCCCNC(=O)OCc2ccccc2)C(=O)NCCC(=O)O)C1=O` displayed an IC50 in assay [2] of 100 µM.

As to `N=C(N)NCCNC(=O)[C@H](CCCCNC(=O)OCc1ccccc1)N1CC[C@H](CCC(=O)O)C1=O`, the IC50 in assay [2] is > 100 µM.
